The results in this text go back to patent US11345659B2, “Pipecolic esters for inhibition of the proteasome” (THE BOARD OF REGENTS OF THE UNIVERSY OF TEXAS SYSTEM, priority 2018, dated 2022).

Format in all cases: biochemical
The target in one assay is immunoproteasomes (Homo sapiens, UniProt P25787+P25789). The assay can be described thus: Activity of housekeeping and immunoproteasomes activated with Rpt5-derived peptide. The text has this:
Immuno and housekeeping forms are serving distinct physiological functions. The clinically used competitive inhibitors do target them with a similar efficacy; however such outcome is not obvious with allosteric inhibitors such as compound 3. Referring to FIG. 11, the relative activities of the proteasome forms are shown, activated with the Rpt5-derived peptide and treated with compound 3.

For assay [1], the target named is T1, latent core 20 S proteasome (Homo sapiens, UniProt P25787+P25789).
T1 construct: purified from erythrocytes; purchased Enzo Life Sciences, Inc. (Farmingdale, N.Y.); host or cells: human erythrocytes
Briefly: T-L peptidase activity of latent 20 S core.

Assay [2] has as its target T1, latent core 20 S proteasome. The assay can be described thus: Competition of compound 3 with tRpt6 peptide, ChT-L activity of latent core. The conditions noted are these: 1 μM compound 3, 2 μM tRpt6. From the text:
According to the most recent model of the 26 S proteasome dynamic cycle, Rpt6 succeeds the Hb-Y—X containing anchor subunits Rpt5, Rpt3, and Rpt2 in docking into the α face pockets and promoting an intermediate conformation between latent and activated (open gate) proteasomes (Dong et al. ([…]) Nature 565(7737): 49-55). […] For comparison, no competition between tRpt5, expected to occupy the α5/α6 pocket, and compound 3 was detected.
Referring to FIG. 4, the C-terminal peptide derived from Rpt6 subunit compromises inhibition of the ChT-L activity of the latent core by the compound 3; however, only when added to the proteasome prior to the inhibitor. […] 1 μM compound 3 and 2 μM tRpt6 were tested. Mean±SD; n=3 to 6.

For `COc1cc(CCCOC(=O)[C@@H]2CCCCN2C(=O)OCc2ccccc2)cc(OC)c1OC` [Compound 3, 1-benzyl 2-(3-(3,4,5-trimethoxyphenyl)propyl) (S)-piperidine-1,2-dicarboxylate], at immunoproteasomes, the “inhibition of housekeeping versus immunoproteasomes” value was “inhibits both housekeeping and immunoproteasomes with similar efficacy”. Besides, in assay [1], the IC50 was > 50 µM. Besides, the remaining activity at 1 µM in assay [1] (1 μM compound, n=3, read-out: T-L activity, % of the control) amounted to 77%. For the same molecule, the remaining activity at 50 µM in assay [1] (50 μM compound, n=4, read-out: T-L activity, % of the control) was 64%. For the same molecule, in assay [2], the “inhibition of ChT-L of the core when tRpt6 is added before the compound” value is on record as “significantly attenuated inhibition of the core” and the “inhibition of the core when the compound is preincubated before addition of tRpt6” value is recorded as “No attenuation was observed”.

One may read the IC50 as the concentration at which inhibition is half-maximal. The low end stands for greater potency in that assay, the high end for weaker potency in that assay.
